The NIST ThermoML archive (doi:10.1021/je100819f)
Numbers after ± are expanded uncertainties.

Details: Crystal; DTA

Normal melting temperature: 197.5 ± 0.7 °C
SMILES: O=C1C=CC(=O)N1c1cc(F)c(Br)c(F)c1 [1-(4-bromo-3,5-difluorophenyl)-1H-pyrrole-2,5-dione]
